System: P. falciparum stage V gametocytes
Assay: Gametocytocidal ATP bioluminescence assay (single point 5 μM and 1 μM, dose-response)
Type: cell-based, Plasmodium falciparum
Conditions: for inhibition at 5 µM: Plasmodium falciparum; for %_Inh: primary screen at 5 μM (S10 Table, MCSI analogs)
[1] = P. falciparum gametocytes, 5 μM single concentration, 48 h, decrease of ATP level (S1 Table)
[2] = gametocytes, primary screen at 5 μM (S9 Table, CSA analogs)

Experimental: Purified stage IV-V gametocytes were obtained as previously described [10]. Single point ATP bioluminescence assay and dose–response of positive hits was determined in accordance with the previously published protocol [10].

SMILES | % Inhibition [1] [%] | also measured
COC(=O)c1cccc(CNCc2cccc(-c3cccc(-c4nc5ccccc5[nH]4)c3)c2)c1 [TCMDC-132961] |  | inhibition at 5 µM [1]: 33%
O=C(NCCCN1CCN(c2cccc(Cl)c2)CC1)c1ccc(-c2nc3cc(Cl)c(Cl)cc3[nH]2)cc1 [TCMDC-140077] | 1.64 | 
Cc1ccnc2nc(C(=O)Nc3cc(C(F)(F)F)ccc3N3CCCCC3)nn12 [TCMDC-124492] | -24 | 
COc1ccc(Cl)cc1NC(=O)Nc1cc(C)nc2ccccc12 [TCMDC-125497] | -50 | 
C=CCc1cc(Cc2cnc(N)nc2N)cc(CCC)c1OC [TCMDC-138039] | 23 | 
Cc1cccc2nc(-c3cccc(-c4cccc(NC(=O)Cc5ccc[n+]([O-])c5)c4)c3)[nH]c12 [TCMDC-136992] | 25 | 
Cc1nc(C)c(CC(=O)Nc2ccc(-c3cccc(-c4nc5ccc(C(F)(F)F)cc5[nH]4)c3)cc2)s1 [TCMDC-136996] | -50 | 
Cc1cccc2nc(-c3cccc(-c4cccc(CNCc5cnn(-c6ccccc6)n5)c4)c3)[nH]c12 [TCMDC-132963] |  | inhibition at 5 µM [1]: 8%
CO/C(=C\C=C\c1cc2cc(Cl)c(Cl)cc2[nH]1)C(=O)NC1CC2CCCC(C1)N2C (centres unmarked) [TCMDC-139067] | 19 | 
c1ccc(-n2ncc(CNCc3ccc(-c4ccc(-c5nc6ccccc6[nH]5)s4)cc3)n2)cc1 [TCMDC-132962] |  | inhibition at 5 µM [1]: 1%
CC1CCN(C(=O)C(Cc2c[nH]c3ccccc23)NS(=O)(=O)c2ccc(Cl)cc2)CC1 (centres unmarked) [TCMDC-124494] | 54 | 
O=C(Nc1ccc(OC2CCN(Cc3ccccc3)CC2)c(Cl)c1)c1ccco1 [TCMDC-133966] | 63 | 
Clc1ccc(-c2nc3ccc(-c4ccc5nc(-c6ccc(Cl)cc6)[nH]c5c4)cc3[nH]2)cc1 [TCMDC-123460] | 1.65 | 
CC(C)(C)c1ccc(NC(=O)c2cccc(CN3CCCN(Cc4ccc(F)cc4)CC3)c2)cc1 [TCMDC-135985] | -30 | 
COc1cc(Cc2cnc(N)nc2N)c2c(c1OC)OC(C)(C)C=C2 [TCMDC-138038] | -2.79 | 
CNC(=O)c1cc(NCCCNCc2ccc(Cl)c(C(F)(F)F)c2)nc2ccccc12 [TCMDC-141082] | 73 | 
COc1ccc2nccc([C@@H](O)CN3CCC(NCc4ccc5scnc5c4)CC3)c2c1 [TCMDC-141081] | 10 | 
CC(C)NC(C)(C)CN(Cc1ccc(-c2ccc(C(F)(F)F)cc2)cc1)C(=O)Cn1c(CCc2cccc(F)c2F)nc(=O)c2ccccc21 [TCMDC-141084] | 72 | 
CN(c1cc(NC(=O)c2cccs2)ccn1)C1CCN(Cc2cccc(C#N)c2)CC1 [TCMDC-134970] | 40 | 

SMILES | % Inhibition [1] [%] | also measured
Ic1cc(Nc2ncnc3ccsc23)ccc1OCc1ccccc1 [TCMDC-131945] | 8 | 
CN(Cc1cccc(C#N)c1)C1CCN(c2cc(NC(=O)c3cccc(F)c3)ccn2)CC1 [TCMDC-134972] | 21 | 
C1=C(c2c[nH]c3ccccc23)CCN(Cc2ccccc2)C1 [TCMDC-123457] | -71 | 
Clc1ccc2c(NCCc3ccccn3)ccnc2c1 [TCMDC-123461] | 8 | 
Cc1cc(NC(=O)Nc2ccc3nc(C)oc3c2)c2cc(Cl)ccc2n1 [TCMDC-140076] | 38 | 
Cc1cc(NC(=O)c2cccs2)ccc1OC1CCN(Cc2ccccc2)C1 (centres unmarked) [TCMDC-133968] | -2.76 | 
O=C(Nc1ccc(OC2CCN(Cc3ccccc3)CC2)c(Cl)c1)c1ccc(F)cc1 [TCMDC-133967] | 19 | 
Cc1cccc2nc(-c3cccc(-c4ccc(NC(=O)Cc5ccc[n+]([O-])c5)cc4)c3)[nH]c12 [TCMDC-136993] | -16 | 
Cc1nc(C)c(CC(=O)Nc2cccc(-c3cccc(-c4nc5ccc(C(F)(F)F)cc5[nH]4)c3)c2)s1 [TCMDC-136995] | 4.51 | 
COC(=O)c1cccc(CNCc2cccc(-c3cccc(-c4nc5cc(F)ccc5[nH]4)c3)c2)c1 [TCMDC-132960] |  | inhibition at 5 µM [1]: 6%
c1ccc2[nH]c(-c3ccc(-c4ccc(CNC5CC5)cc4)s3)nc2c1 [TCMDC-132675] |  | inhibition at 5 µM [2]: -17.6%
COc1cc2nc(C)nc(Nc3ccc(Cc4ccccc4)cc3)c2cc1OC [TCMDC-131941] | 1.46 | 
N=C(N)c1ccc(-c2cc3ccc(C(=N)N)cc3[nH]2)cc1 [TCMDC-123458] | 53 | 
Cc1nc(C)c(CC(=O)Nc2ccc(-c3ccc(-c4nc5cc(C(F)(F)F)ccc5[nH]4)s3)cc2)s1 [TCMDC-136994] |  | inhibition at 5 µM [1]: 7%
CN(CC(=O)Nc1ccc(F)c(F)c1F)c1ncnc2sc(-c3ccccc3)cc12 [TCMDC-124491] | 23 | 
O=C(/C=C/c1ccc(Cl)c(Cl)c1)N1CCC(CCN2CCC(c3c[nH]c4ccncc34)CC2)CC1 [TCMDC-140075] | 91 | 
Cc1cccc2nc(-c3ccc(-c4ccc(CN5CCN(C6CCN(C)CC6)CC5)cc4)s3)[nH]c12 [TCMDC-133866] |  | %_Inh (gametocytes): 106.989%
Cc1cccc2nc(-c3ccc(-c4cccc(CNCc5ccc(CN)cc5)c4)s3)[nH]c12.O=C(O)C(F)(F)F [TCMDC-132812] |  | %_Inh (gametocytes): 115.306%
CCOc1ccc(NC(=O)c2cccc(CN3CCCN(Cc4cccc(O)c4)CC3)c2)cc1 [TCMDC-135987] | -5 | 

SMILES | % Inhibition [1] [%] | also measured
COC(=O)CCCCOc1cc(Cc2cnc(N)nc2N)cc(OC)c1OC [TCMDC-138041] | 2 | 
COc1cc(C(=O)NC2CCN(Cc3ccccc3)CC2)ccc1-c1nc2cc(Cl)c(Cl)cc2[nH]1 [TCMDC-140078] | -56 | 
Cc1ccc(Oc2ncccc2C(=O)Nc2cccc3cccnc23)c(C)c1 [TCMDC-125499] | -13 | 
CCc1ccc(NC(=O)c2cccc(CN3CCCN(CC4CCCCC4)CC3)c2)cc1 [TCMDC-135988] | -39 | 
COc1cc(Cc2cnc(N)nc2N)cc(OCCCC#N)c1OC [TCMDC-138040] | -4.21 | 
COc1cc(C(=O)NCCCN2CCN(c3cc(Cl)ccc3OC)CC2)ccc1-c1nc2cc(Cl)c(Cl)cc2[nH]1 [TCMDC-140079] | 4.42 | 
COc1ccc(CN2CCCN(Cc3cccc(C(=O)Nc4ccc(C(C)(C)C)cc4)c3)CC2)cc1 [TCMDC-135986] | 5.59 | 
Cc1cccc(CN2CCCN(Cc3cccc(C(=O)Nc4ccc(C(C)(C)C)cc4)c3)CC2)c1 [TCMDC-135984] | -91 | 
COc1ccc(NC2=C(c3ccccc3)C(=O)c3ccccc32)cn1 [TCMDC-125501] | 37 | 
CN(Cc1cccc(C#N)c1)C1CCN(c2cc(NC(=O)c3ccc(F)cc3)ccn2)CC1 [TCMDC-134974] | -6 | 
CNc1c2c(nc3ccc(NC(=O)CCCCCCc4ccccc4)cc13)CCCC2 [TCMDC-139066] | 79 | 
CC(=O)Nc1ccc(CN2CCC(N(C)c3cc(NC(=O)c4cccs4)ccn3)CC2)cc1 [TCMDC-134971] | -7 | 
Nc1nc(N)c2c(Sc3ccccc3)cccc2n1 [TCMDC-131943] | 9 | 
O=C1C(c2ccccc2)=C(Nc2cccc(OC(F)(F)C(F)F)c2)c2ccccc21 [TCMDC-125498] | 66 | 
O=C(Nc1ccc(CN2CCC(c3c[nH]c4ccc(O)cc34)CC2)cc1)c1ccc(-c2ccccc2)cc1 [TCMDC-139068] | -139 | 
Nc1nc(N)c2c(ccc3ccccc32)n1 [TCMDC-131942] | 19 | 
CC(C)CN(C)Cc1ccc(-c2ccc(-c3nc4ccccc4[nH]3)s2)cc1 [TCMDC-136786] |  | inhibition at 5 µM [2]: -17.4%
C=CCOc1cc(Cc2cnc(N)nc2N)cc(OC)c1OC [TCMDC-138042] | -4 | 

From article PMC4552634, “A New Set of Chemical Starting Points with Plasmodium falciparum Transmission-Blocking Potential for Antimalarial Drug Discovery” (PLoS ONE, 2015)
